Like-named read-outs stand apart in the source and are kept apart here.
Legend:
38 SCLC cell lines = experiment: Cell line cytotoxicity assay (CellTiter Glo), panel of 38 SCLC cell lines; type: cell-based; conditions: Homo sapiens, 38 SCLC lines, 5 or 7 days incubation, generational method
Description: Various SCLC cell lines (38) were obtained from ATCC (American Type Culture Collection), ECACC (European Collection of Cell Cultures), JCRB (Japanese Collection of Research Bioresources), and CLS Cell Lines Service as shown in Table 1. […] After 24 h, talazoparib at 2000, 400, 80, 16, 3.2, or 0.64 nM in 0.2% DMSO, or cisplatin at 100,000, 2000, 400, 80, 16, or 3.2 nM were added in duplicate, and incubated for an additional 5 or 7 days. Cell survival was determined by CellTiter Glo assay (Promega). Cell growth inhibition was calculated by two methods: (a) the treated cell counts relative to untreated control to obtain IC50 (convention survival fraction method), or (b) doublings from baseline under treatment relative to doublings from baseline without treatment to obtain GI50 (generational method), using GraphPad Prism5. Maximum inhibition levels for each method were also obtained.

NCI-H209 SCLC cell line = experiment: Cell line cytotoxicity assay (CellTiter Glo), NCI-H209; type: cell-based; conditions: Homo sapiens, SLFN11 RMA 8.794, read-out: BMN 673 Sensitivity In vitro GI50
Description: (§1) After 24 h, talazoparib at 2000, 400, 80, 16, 3.2, or 0.64 nM in 0.2% DMSO, or cisplatin at 100,000, 2000, 400, 80, 16, or 3.2 nM were added in duplicate, and incubated for an additional 5 or 7 days. Cell survival was determined by CellTiter Glo assay (Promega). Cell growth inhibition was calculated by two methods: (a) the treated cell counts relative to untreated control to obtain IC50 (convention survival fraction method), or (b) doublings from baseline under treatment relative to doublings from baseline without treatment to obtain GI50 (generational method), using GraphPad Prism5. Maximum inhibition levels for each method were also obtained.

NCI-H1048 SCLC cell line = experiment: Cell line cytotoxicity assay (CellTiter Glo), NCI-H1048; type: cell-based; conditions: Homo sapiens, SLFN11 RMA 7.583, read-out: BMN 673 Sensitivity In vitro GI50
Description: as §1

NCI-H69 SCLC cell line = experiment: Cell line cytotoxicity assay (CellTiter Glo), NCI-H69; type: cell-based; conditions: Homo sapiens, SLFN11 RMA 3.981, read-out: BMN 673 Sensitivity In vitro GI50
Description: as §1

NCI-H209 SCLC xenograft = experiment: Cell line-derived xenograft model NCI-H209; type: in vivo, BALB/c nude mice; conditions: 0.33 mg/kg, Q1D×28 p.o.
Description: (§2) Human NCI-H1048, NCI-H209, and NCI-H69 SCLC tumor cells were injected subcutaneously in the flanks of BALB/c nude mice. When tumors reached approximately 130 mm^3 average volume, animals (n=8 per group) were treated with vehicle (Q1D×28, p.o.), cisplatin (6 mg/kg, Q6D×2 i.p.), or talazoparib (0.33 mg/kg, Q1D×28 p.o.). Tumor growth and animal body weight were monitored twice per week by standard methods.

NCI-H1048 SCLC xenograft = experiment: Cell line-derived xenograft model NCI-H1048; type: in vivo, BALB/c nude mice; conditions: 0.33 mg/kg, Q1D×28 p.o.
Description: as §2

NCI-H69 SCLC xenograft = experiment: Cell line-derived xenograft model NCI-H69; type: in vivo, BALB/c nude mice; conditions: 0.33 mg/kg, Q1D×28 p.o.
Description: as §2

[1] = test system: LU-01-0547 SCLC PDX tumor; experiment: Human SCLC PDX model LU-01-0547; type: in vivo, immunocompromised mice; conditions: D 83, MTD 0.25-0.3 mg/kg once daily oral, median tumor volume (n = 5)
Description: (§3) Twelve human SCLC PDX models (obtained from Crown Biosciences, OncoTest, WuxiAppTec) were evaluated for their responses to talazoparib single agent treatment. PDX tumors were propagated subcutaneously in immunocompromised mice at passage 3 to 13. When tumors reached approximately 150 mm^3 average volume, animals (n=5 per group) were administered orally with vehicle (once daily dose), or talazoparib at the maximum tolerated dose (MTD; 0.25-0.3 mg/kg, once daily). Tumor volume and animal body weight were measured twice weekly until the end of study or until tumor size exceeded 2000 mm^3. Untreated tumor samples were collected from mice. Median tumor volume on Day 21 and beyond after first treatment was used to calculate the change from baseline to evaluate response.

CTG-0198 SCLC PDX tumor = experiment: Human SCLC PDX model CTG-0198; type: in vivo, immunocompromised mice; conditions: D 29, MTD 0.25-0.3 mg/kg once daily oral, median tumor volume (n = 5)
Description: as §3

LU1267 SCLC PDX tumor = experiment: Human SCLC PDX model LU1267; type: in vivo, immunocompromised mice; conditions: D 38, MTD 0.25-0.3 mg/kg once daily oral, median tumor volume (n = 5)
Description: as §3

LU67 SCLC PDX tumor = experiment: Human SCLC PDX model LU67; type: in vivo, immunocompromised mice; conditions: D 25, MTD 0.25-0.3 mg/kg once daily oral, median tumor volume (n = 5)
Description: as §3

LU65 SCLC PDX tumor = experiment: Human SCLC PDX model LU65; type: in vivo, immunocompromised mice; conditions: D 21, MTD 0.25-0.3 mg/kg once daily oral, median tumor volume (n = 5)
Description: as §3

LXFS 615 SCLC PDX tumor = experiment: Human SCLC PDX model LXFS 615; type: in vivo, immunocompromised mice; conditions: D 21, MTD 0.25-0.3 mg/kg once daily oral, median tumor volume (n = 5)
Description: as §3

LXFS 1129 SCLC PDX tumor = experiment: Human SCLC PDX model LXFS 1129; type: in vivo, immunocompromised mice; conditions: D 21, MTD 0.25-0.3 mg/kg once daily oral, median tumor volume (n = 5)
Description: as §3

LU2514 SCLC PDX tumor = experiment: Human SCLC PDX model LU2514; type: in vivo, immunocompromised mice; conditions: D 21, MTD 0.25-0.3 mg/kg once daily oral, median tumor volume (n = 5)
Description: as §3

LXFS 650 SCLC PDX tumor = experiment: Human SCLC PDX model LXFS 650; type: in vivo, immunocompromised mice; conditions: D 21, MTD 0.25-0.3 mg/kg once daily oral, median tumor volume (n = 5)
Description: as §3

CTG-0199 SCLC PDX tumor = experiment: Human SCLC PDX model CTG-0199; type: in vivo, immunocompromised mice; conditions: D 21, MTD 0.25-0.3 mg/kg once daily oral, median tumor volume (n = 5)
Description: as §3

LXFS 573 SCLC PDX tumor = experiment: Human SCLC PDX model LXFS 573; type: in vivo, immunocompromised mice; conditions: D 21, MTD 0.25-0.3 mg/kg once daily oral, median tumor volume (n = 5)
Description: as §3

LXFS 2156 SCLC PDX tumor = experiment: Human SCLC PDX model LXFS 2156; type: in vivo, immunocompromised mice; conditions: D 21, MTD 0.25-0.3 mg/kg once daily oral, median tumor volume (n = 5)
Description: as §3

[2] = test system: Twelve human SCLC PDX models; experiment: Twelve human SCLC PDX models, response classification; type: in vivo, immunocompromised mice; conditions: 12 SCLC PDX models; talazoparib at maximum tolerated dose
Description: as §3
Twelve human SCLC PDX models were further tested with talazoparib at maximum tolerated doses compared to a vehicle control.

Cn1ncnc1[C@H]1c2n[nH]c(=O)c3cc(F)cc(c23)N[C@@H]1c1ccc(F)cc1 [talazoparib]
GI50 (38 SCLC cell lines; read-out: GI50 range across the 38 SCLC lines): ≥ 2 nM
GI50 (38 SCLC cell lines; read-out: median GI50 across the 38 SCLC lines): 56 nM
GI50 (NCI-H209 SCLC cell line): 2.03 nM
GI50 (NCI-H1048 SCLC cell line): 14.4 nM
GI50 (NCI-H69 SCLC cell line): 190 nM
BMN 673 Sensitivity In vivo Tumor growth (NCI-H209 SCLC xenograft): much more sensitive to talazoparib than the H69 model
BMN 673 Sensitivity In vivo Tumor growth (NCI-H209 SCLC xenograft; listed as BMN 673, 0.33 mg/kg): Delay
BMN 673 Sensitivity In vivo Tumor growth (NCI-H1048 SCLC xenograft): much more sensitive to talazoparib than the H69 model
BMN 673 Sensitivity In vivo Tumor growth (NCI-H1048 SCLC xenograft; listed as BMN 673, 0.33 mg/kg): Delay
BMN 673 Sensitivity In vivo Tumor growth (NCI-H69 SCLC xenograft): No delay
Best response: Change from base line (%) [1]: −95%
Best response: Change from base line (%) (CTG-0198 SCLC PDX tumor): −55%
Best response: Change from base line (%) (LU1267 SCLC PDX tumor): −30%
Best response: Change from base line (%) (LU67 SCLC PDX tumor): −29%
Best response: Change from base line (%) (LU65 SCLC PDX tumor): 17%
Best response: Change from base line (%) (LXFS 615 SCLC PDX tumor): 83%
Best response: Change from base line (%) (LXFS 1129 SCLC PDX tumor): 260%
Best response: Change from base line (%) (LU2514 SCLC PDX tumor): 262%
Best response: Change from base line (%) (LXFS 650 SCLC PDX tumor): 314%
Best response: Change from base line (%) (CTG-0199 SCLC PDX tumor): 318%
Best response: Change from base line (%) (LXFS 573 SCLC PDX tumor): 351%
Best response: Change from base line (%) (LXFS 2156 SCLC PDX tumor): 615%
PDX models designated as progressive disease (PD) [2]: remaining PDX models were resistant
PDX models with 30% or more tumor regression compared to baseline (partial responders, PR) [2]: Three of the 12
PDX tumors with stable disease (SD)-like responses, tumor growth less than 100% on Day 21 or beyond [2]: three of the 12

From patent US20190054087A1, “TREATMENT OF SMALL CELL LUNG CANCER WITH A PARP INHIBITOR” (priority 2015, published 2019)
